Data: paper PMC8229952, “Coumarin Derivatives Act as Novel Inhibitors of Human Dipeptidyl Peptidase III: Combined In Vitro and In Silico Study” (Pharmaceuticals, 2021)

Columns and labels:
[1] = target: T1, human dipeptidyl peptidase III (hDPP III) (Homo sapiens, UniProt Q9NY33); assay: spectrophotometric enzyme assay, % inhibition at […], purified hDPP III; type: biochemical; conditions: for inhibition at 10 µM: read-out: DPP III Inh. (%)
T1 construct: gene DPP3; C-terminally truncated human DPP III (His-tag removed by TEV)
T1 sequence (Q9NY33 1-726 limits assumed): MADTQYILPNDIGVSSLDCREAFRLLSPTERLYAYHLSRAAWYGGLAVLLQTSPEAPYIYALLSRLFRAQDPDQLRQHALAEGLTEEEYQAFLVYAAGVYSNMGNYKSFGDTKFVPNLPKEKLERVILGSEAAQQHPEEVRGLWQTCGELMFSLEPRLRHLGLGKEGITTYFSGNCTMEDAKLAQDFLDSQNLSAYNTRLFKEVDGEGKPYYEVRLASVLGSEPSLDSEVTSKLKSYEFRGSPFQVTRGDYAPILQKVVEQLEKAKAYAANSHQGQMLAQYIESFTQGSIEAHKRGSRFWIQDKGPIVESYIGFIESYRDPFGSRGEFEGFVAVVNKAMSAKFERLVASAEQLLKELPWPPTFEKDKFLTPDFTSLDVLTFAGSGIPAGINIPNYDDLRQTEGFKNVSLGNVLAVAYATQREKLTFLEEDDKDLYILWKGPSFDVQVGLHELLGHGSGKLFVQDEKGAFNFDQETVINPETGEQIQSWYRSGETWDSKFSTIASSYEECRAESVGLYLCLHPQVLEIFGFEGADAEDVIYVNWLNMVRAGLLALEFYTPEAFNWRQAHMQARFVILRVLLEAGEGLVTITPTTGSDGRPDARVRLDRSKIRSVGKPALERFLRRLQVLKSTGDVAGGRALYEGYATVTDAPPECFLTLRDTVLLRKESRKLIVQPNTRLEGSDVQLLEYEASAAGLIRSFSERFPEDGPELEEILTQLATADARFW

[2] = target: T1, human dipeptidyl peptidase III (hDPP III); assay: spectrophotometric enzyme assay with Arg2-2NA substrate, purified hDPP III; type: biochemical; conditions: read-out: DPP III Inh. (%)

Compound	inhibition at 10 µM [1]	IC50 [2]	also measured
O=C(c1ccccc1)c1cc2cc(O)ccc2oc1=O [compound 10, 3-benzoyl; 6-hydroxy (substituted 2H-chromen-2-one)]	67.5%		
O=C(c1ccccc1)c1cc2ccc(O)cc2oc1=O [compound 12, 3-benzoyl-7-hydroxy-2H-chromen-2-one]		1100 ± 50 nM	
N#Cc1cc2cc(O)ccc2oc1=O [compound 18, 3-cyano; 6-hydroxy (substituted 2-oxo-2H-chromene-3-carbonitrile)]	44.6%		
N#Cc1cc2cccc(O)c2oc1=O [compound 21, 3-cyano; 8-hydroxy (substituted 2-oxo-2H-chromene-3-carbonitrile)]	62.6%		
CCOC(=O)c1cc2cc(O)ccc2oc1=O [compound 27, 3-ethoxycarbonyl; 6-hydroxy (substituted 2H-chromen-2-one)]			DPP III Inh. (%) ([1]; 10 µM): 66.0
COC(=O)c1cc2ccc(O)cc2oc1=O [compound 36, methyl 7-hydroxy-2-oxo-2H-chromene-3-carboxylate]		2140 ± 60 nM	
